Experiments:
[1] = biological target: T1, Solute carrier organic anion transporter family member 1B3 (Homo sapiens, UniProt Q9NPD5); conditions: chinese hamster, cho, 10 µM
T1 sequence (Q9NPD5 whole entry): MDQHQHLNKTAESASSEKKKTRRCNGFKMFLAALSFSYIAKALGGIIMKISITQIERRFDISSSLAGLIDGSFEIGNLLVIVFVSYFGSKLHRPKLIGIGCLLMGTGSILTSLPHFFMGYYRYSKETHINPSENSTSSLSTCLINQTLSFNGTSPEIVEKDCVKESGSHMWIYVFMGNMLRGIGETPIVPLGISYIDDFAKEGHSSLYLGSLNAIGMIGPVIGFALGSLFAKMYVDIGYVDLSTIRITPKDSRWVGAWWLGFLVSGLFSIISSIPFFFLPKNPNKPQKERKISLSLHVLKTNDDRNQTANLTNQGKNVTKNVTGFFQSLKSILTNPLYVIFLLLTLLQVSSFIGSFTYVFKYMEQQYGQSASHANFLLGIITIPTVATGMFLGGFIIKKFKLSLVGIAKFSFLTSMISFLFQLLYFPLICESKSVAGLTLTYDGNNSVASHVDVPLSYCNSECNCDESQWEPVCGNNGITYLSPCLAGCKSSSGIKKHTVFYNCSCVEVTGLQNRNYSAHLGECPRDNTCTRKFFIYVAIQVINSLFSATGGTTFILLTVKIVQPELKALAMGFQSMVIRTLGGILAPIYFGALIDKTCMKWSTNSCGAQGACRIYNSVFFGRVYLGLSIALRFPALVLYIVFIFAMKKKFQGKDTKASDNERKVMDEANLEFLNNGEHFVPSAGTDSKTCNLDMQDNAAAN

[2] = biological target: T2, Solute carrier organic anion transporter family member 1B1 (Homo sapiens, UniProt Q9Y6L6); conditions: chinese hamster, cho, 10 µM
T2 sequence (Q9Y6L6 whole entry): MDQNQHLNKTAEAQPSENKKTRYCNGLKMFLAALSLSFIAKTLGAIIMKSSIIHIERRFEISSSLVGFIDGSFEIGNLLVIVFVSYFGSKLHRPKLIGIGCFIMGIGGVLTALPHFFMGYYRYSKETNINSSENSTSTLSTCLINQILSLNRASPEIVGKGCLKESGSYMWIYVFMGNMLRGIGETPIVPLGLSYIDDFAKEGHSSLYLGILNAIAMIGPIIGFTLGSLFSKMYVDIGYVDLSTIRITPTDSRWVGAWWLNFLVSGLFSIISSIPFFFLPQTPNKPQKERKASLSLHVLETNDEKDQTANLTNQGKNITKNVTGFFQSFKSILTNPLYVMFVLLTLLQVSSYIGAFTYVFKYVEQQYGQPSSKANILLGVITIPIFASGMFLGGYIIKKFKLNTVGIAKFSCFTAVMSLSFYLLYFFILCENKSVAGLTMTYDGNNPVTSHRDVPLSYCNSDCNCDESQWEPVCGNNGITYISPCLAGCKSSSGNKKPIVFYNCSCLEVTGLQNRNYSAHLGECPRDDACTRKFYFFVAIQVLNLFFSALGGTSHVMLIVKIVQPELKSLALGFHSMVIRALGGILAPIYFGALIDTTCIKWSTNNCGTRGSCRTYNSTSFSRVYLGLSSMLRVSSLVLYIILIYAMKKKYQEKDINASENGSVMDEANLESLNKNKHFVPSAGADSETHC

| SMILES | residual activity [1] [%] | residual activity [2] [%] |
| --- | --- | --- |
| Cl.NCc1ccc(S(N)(=O)=O)cc1 [MAFENIDE HYDROCHLORIDE] | 85.4 | 81.65 |
| CN[C@@H]1[C@H](O)[C@H](NC)[C@H]2O[C@@]3(O)C(=O)C[C@@H](C)O[C@H]3O[C@@H]2[C@H]1O.Cl | 96.23 | 89.17 |
| CCN(CC)CCOCCOC(=O)C1(c2ccccc2)CCCC1.O=C(O)CC(O)(CC(=O)O)C(=O)O [CARBETAPENTANE CITRATE] | 97.23 | 86.24 |
| COc1cc2c(cc1OC)[C@@]13CCN4CC5=CCO[C@H]6CC(=O)N2[C@H]1[C@H]6[C@H]5C[C@H]43 [BRUCINE] | 229.8 | 117.9 |
| CC1/C(=N/O)C[C@@H]2C[C@H]1C2(C)C (stereo partly drawn) [3-PINANONE OXIME] | 123 | 95.73 |
| COP(=O)(NC(C)=O)SC (stereo not drawn) [ACEPHATE] | 83.6 | 75.83 |
| O=C(CCBr)N1CCN(C(=O)CCBr)CC1 [PIPOBROMAN] | 82.4 | 62.45 |
| CCN(CC)CCNC(=O)c1ccc(N)cc1.Cl [PROCAINAMIDE HYDROCHLORIDE] | 104.4 | 81.68 |
| CN(C)CCN(Cc1cccs1)c1ccccn1.Cl [METHAPYRILENE HYDROCHLORIDE] | 82.96 | 83.03 |
| CCN(CC)C(C)CN1c2ccccc2Sc2ccccc21.Cl (stereo not drawn) [ETHOPROPAZINE HYDROCHLORIDE] | 85.68 | 60.6 |
| OC(Cn1cncn1)(Cn1cncn1)c1ccc(F)cc1F [FLUCONAZOLE] | 106.5 | 86.64 |
| COc1ccccc1-c1cc(=O)c2cccc(OC)c2o1 [8,2'-DIMETHOXYFLAVONE] | 108 | 107.3 |
| CC(CN1c2ccccc2Sc2ccccc21)N(C)C.Cl (stereo not drawn) [PROMETHAZINE HYDROCHLORIDE] | 86.93 | 69.15 |
| COc1ccc(OC)c(C(O)C(C)N)c1.Cl (stereo not drawn) [METHOXAMINE HYDROCHLORIDE] | 104.7 | 80.21 |
| C[C@@]12C[C@@]3(O)O[C@@H](O1)[C@]1(COC(=O)c4ccccc4)[C@H]3C[C@@]12O[C@@H]1O[C@H](CO)[C@@H](O)[C@H](O)[C@H]1O [PAEONIFLORIN] | 101.8 | 109.5 |
| CC1=C2C(=CO[C@H](C)[C@H]2C)C(O)=C(C(=O)O)C1=O [CITRININ] | 67.29 | 34.39 |
| O=C1c2ccccc2C(=O)c2c1ccc(O)c2O [ATHRAQUINONES A] | 93.11 | 84.81 |
| CC(=O)[C@H]1CC[C@H]2[C@@H]3CC[C@@H]4C[C@H](O)CC[C@]4(C)[C@H]3C[C@H](O)[C@]12C | 117.8 | 97.69 |
| O=C1C(Cl)=C(Cl)C(=O)C(Cl)=C1Cl [CHLORANIL] | 74.83 | 80.53 |
| COc1c2c(c(CC=C(C)C)c3oc(=O)c(-c4ccc(O)cc4)c(O)c13)OC(C)(C)C=C2 [LONCHOCARPIC ACID] | 36.3 | 26.49 |
| Cc1ccc(N(CC2=NCCN2)c2cccc(O)c2)cc1.Cl [PHENTOLAMINE HYDROCHLORIDE] | 86.01 | 85.39 |
| CC(N)CCCC(C)(C)O.Cl (stereo not drawn) [HEPTAMINOL HYDROCHLORIDE] | 104.5 | 95.56 |

| SMILES | residual activity [1] [%] | residual activity [2] [%] |
| --- | --- | --- |
| Nc1ncn([C@@H]2O[C@H](CO)[C@@H](O)[C@H]2O)c(=O)n1 [AZACITIDINE] | 96.87 | 108.4 |
| CCOCN(C(=O)CCl)c1c(C)cccc1CC [ACETOCHLOR] | 84.4 | 74.59 |
| O=C(O[C@@H]1Cc2c(O)cc(O)cc2O[C@@H]1c1cc(O)c(O)c(O)c1)c1cc(O)c(O)c(O)c1 [EPIGALOCATECHIN GALLATE] | 45.88 | 49.04 |
| Cl.NCCc1cc(O)c(O)cc1O [OXIDOPAMINE HYDROCHLORIDE] | 100.5 | 80.99 |
| COc1cccc(C=O)c1OC | 100.4 | 107.3 |
| COC1=CC(=O)C(C(=O)c2ccccc2)=CC1=O [2-BENZOYL-5-METHOXYBENZOQUINONE] | 165.6 | 106.8 |
| COC(=O)C[C@H]1C(C)(C)[C@]2(Cl)O[C@@]34CC2C(=O)[C@]1(C)C3CC[C@]1(C)C4=CC(=O)O[C@H]1c1ccoc1 (stereo partly drawn) | 88.12 | 68.86 |
| O=C(/C=C/c1ccccc1)c1ccc(O[C@@H]2O[C@H](CO)[C@@H](O)[C@H](O)[C@H]2O)cc1O [2',4'-DIHYDROXYCHALCONE 4'-GLUCOSIDE] | 107.4 | 99.51 |
| O=C(O)Cc1nn(Cc2ccc(Br)cc2F)c(=O)c2ccccc12 [PONALRESTAT] | 83.62 | 139.9 |
| C[C@H](CS)C(=O)N1CCC[C@H]1C(=O)O [CAPTOPRIL] | 105.2 | 167 |
| NC[C@H]1CC[C@H](C(=O)O)CC1 [TRANEXAMIC ACID] | 102.3 | 81.79 |
| NC(=O)N1c2ccccc2C=Cc2ccccc21 [CARBAMAZEPINE] | 99.43 | 121.6 |
| O=c1ccc2cc(O)c(O)cc2o1 [ESCULETIN] | 105.3 | 111.1 |
| CC(=O)Oc1cc(OC(C)=O)c2c(c1)O[C@H](c1ccc(OC(C)=O)c(OC(C)=O)c1)[C@H](OC(C)=O)C2 [EPICATECHIN PENTAACETATE] | 76.08 | 74.79 |
| O=C(O)c1cc(O)c2ccc(Cl)cc2n1 [7-CHLOROKYNURENIC ACID] | 89.9 | 93.09 |
| NC(=O)c1ccc[n+]([C@@H]2O[C@H](COP(=O)([O-])OP(=O)(O)OC[C@H]3O[C@@H](n4cnc5c(N)ncnc54)[C@H](O)[C@@H]3O)[C@@H](O)[C@H]2O)c1 [NADIDE] | 115.4 | 99.44 |
| Cc1nc2sccn2c(=O)c1CCN1CCC(=C(c2ccc(F)cc2)c2ccc(F)cc2)CC1 [RITANSERIN] | 101.7 | 96.72 |
| COc1ccccc1OCC(O)CN1CCN(CC(=O)Nc2c(C)cccc2C)CC1 (stereo not drawn) [RANOLAZINE] | 83.1 | 70.75 |
| CCc1ccc2c(O)c3c(cc2c1C(=O)OC)C(=O)c1c(O)ccc(O)c1C3=O [BISANHYDRORUTILANTINONE] | 115.2 | 104.1 |
| OC[C@@H](O)[C@@H](O)[C@@H](O)CO [RIBITOL] | 94.42 | 81.13 |
| CN[C@H]1CC[C@@H](c2ccc(Cl)c(Cl)c2)c2ccccc21.Cl [SERTRALINE HYDROCHLORIDE] | 72.13 | 66.16 |
| CC1(C)CC2C1CCC1(C)OC1CCC2(C)O (stereo not drawn) [2-HYDROXY-5 (6)EPOXY-TETRAHYDROCARYOPHYLLENE] | 86.53 | 70.41 |
